The text below walks through data of patent US9845349B2 (priority 2012, dated 2017).

“And” between values parts separate entries of the source, which are not always exact repeats. Equal values may be shown once.

The first test concerns the target LFG2:4B10 mAb.
Conditions: not given
TFKDEIGGGSK-biotin: the affinity, expressed as Kd, was 9.97 nM; the “Response R” value was found to be 4.8387; the binding response was 4.83 nm; the “improvement in binding response versus native epitope THQDEIYEQK-biotin” value is about 7 fold.

For the substance TFKDAIGGGSK-biotin, binding was put at a Kd of 24.5 nM and the “Response R” value is listed as 1.0132.

As for TAKDEIGGGSK-biotin, the Kd is 31.5 nM and 20.9 nM; the “Response R” value is 3.7854 and 3.7743.

For TFKAEIGGGSK-biotin, the “Response R” value was 0.2612 and 0.2492.

Consider THKDEIGGGSK-biotin, for which the affinity, expressed as Kd, was 60 nM and the “Response R” value worked out at 2.3704.

Turning to TFADEIGGGSK-biotin, the Kd is 25.2 nM and 23.9 nM; the “Response R” value is 0.4475 and 0.4596.

For TFKDEAGGGSK-biotin, the Kd was found to be 16.4 nM and the “Response R” value turned out to be 5.2909.

On to THQDEIYEQK-biotin, for which binding was put at a Kd of 53.1 nM, the “Response R” value came out at 0.7024 and the binding response came out at 0.7 nm.

As for AFKDEIGGGSK-biotin, the Kd was 28.7 nM and 35.1 nM; the “Response R” value was 0.556 and 0.5352.

Regarding TFQDEIGGGSK-biotin, binding was characterised by a dissociation constant (Kd) of 34.4 nM and the “Response R” value was 1.3414.

Staying with this test, now noted: read-out: dissociation (KD).
With TFKDEIGGGSK-biotin, the Kd amounted to 13.9 nM.

THQDEIYEQK-biotin: the Kd is 53 nM.

One may read the Kd as the constant that tells how readily two partners part at equilibrium.
